From ChEMBL document CHEMBL5260848, “Recent advancements in the development of bioactive pyrazoline derivatives” (Eur J Med Chem, 2020) come the findings set out here.

A word on the IC50: it is the concentration that inhibits the measured activity by half. One may read the GI50 as the concentration at which growth is held to half of that of the control. A high value points to less potent growth inhibition. The inhibition is the share of the control response that was lost under treatment. A higher inhibition goes with strong suppression. As usually defined, the CC50 is the concentration that lowers cell viability or growth by half.

Assay [1] deals with Rattus norvegicus. The assay is described as follows: Antiinflammatory activity in carrageenan induced rat paw edema model assessed inhibition of TNF-alpha level. It is filed as functional, organism-based. In general terms: The carrageenan paw model is a standard test of acute inflammation.
The subject of assay [2] is DU-145. Put plainly: Cytotoxicity against human DU-145 cells by SRB assay. The assay is classed as functional. Background: In SRB staining, fixed cells bind dye roughly in proportion to their protein.
In assay [3] the target is Tubulin (Homo sapiens) (UniProt P68371+Q9H4B7+P0DPH7+P68366+Q13509+Q71U36+P04350+Q3ZCM7+P07437+P68363+Q9BQE3+Q6PEY2+Q13885+Q9BVA1+Q9BUF5). Put plainly: Inhibition of tubulin polymerization (unknown origin) by fluorescence assay relative to control. It is filed as protein-complex assay. To be noted: concentration not given here.
Assay [4] deals with Plasmodium berghei. The assay is described as follows: Antimalarial activity against Plasmodium berghei infected in mouse assessed as suppression percentage at 48.46 umol/kg administered daily relative to control. The assay is classed as functional. As to conditions: dose 48.46 µmol/kg.
The subject of assay [5] is MCF7. The assay is described as follows: cells. As to conditions: Homo sapiens.
Assay [6] in a line: Cytotoxicity against human HPC cells assessed as reduction in cell viability incubated for 48 hrs by MTT assay. The assay is classed as functional. (Tetrazolium assays rely on reduction of a dye to a coloured formazan, in cell work by metabolically active cells.)
Assay [7] in a line: Cytotoxicity against human HPLF cells assessed as reduction in cell viability incubated for 48 hrs by MTT assay. The assay is classed as functional.
The subject of assay [8] is HSC-3. The assay is described as follows: Cytotoxicity against human HSC-3 cells assessed as reduction in cell viability incubated for 48 hrs by MTT assay. It is filed as functional.
In assay [9] the test system is Ca9-22. The assay is described as follows: Cytotoxicity against human Ca9-22 cells assessed as reduction in cell viability incubated for 48 hrs by MTT assay. It is filed as functional.
In assay [10] the test system is HepG2. Put plainly: cells. To be noted: Homo sapiens.
A short description of assay [11]: Cytotoxicity against human HGF cells assessed as reduction in cell viability incubated for 48 hrs by MTT assay. It is filed as functional.
The subject of assay [12] is HSC-2. The assay is described as follows: Cytotoxicity against human HSC-2 cells assessed as reduction in cell viability incubated for 48 hrs by MTT assay. The assay is classed as functional.
The subject of assay [13] is Aspergillus niger. Put plainly: Antifungal activity against Aspergillus niger incubated for 24 hrs by disc diffusion method. It is filed as functional.
The subject of assay [14] is Candida albicans. Put plainly: microbe, parasite or virus in culture. To be noted: 24 h.
Assay [15] concerns Staphylococcus aureus. Put plainly: microbe, parasite or virus in culture.
Assay [16] deals with Aspergillus flavus. Put plainly: Antifungal activity against Aspergillus flavus incubated for 24 hrs by disc diffusion method. It is filed as functional.
In assay [17] the test system is Staphylococcus aureus. The assay is described as follows: microbe, parasite or virus in culture. As to conditions: 24 h.
The subject of assay [18] is Bacillus subtilis. Put plainly: microbe, parasite or virus in culture. To be noted: 24 h.
Assay [19] has as its system Candida albicans. The assay is described as follows: microbe, parasite or virus in culture.
The subject of assay [20] is Pseudomonas aeruginosa. The assay is described as follows: microbe, parasite or virus in culture. To be noted: 24 h.
Assay [21] deals with Escherichia coli. Put plainly: Antibacterial activity against Escherichia coli incubated for 24 hrs by disc diffusion method. The assay is classed as functional.
The test system of assay [22] is Aspergillus fumigatus. The assay is described as follows: Antifungal activity against Aspergillus fumigatus incubated for 24 hrs by disc diffusion method. It is filed as functional.
Assay [23] relates to Streptococcus pyogenes. Put plainly: Antibacterial activity against Streptococcus pyogenes assessed as inhibition of microbial growth. The assay is classed as functional.
For assay [24], the system named is Aspergillus clavatus. The assay is described as follows: Antifungal activity against Aspergillus clavatus. It is filed as functional.
In assay [25] the test system is Aspergillus niger. The assay is described as follows: Antifungal activity against Aspergillus niger. It is filed as functional.
Assay [26] has as its system Candida albicans. The assay is described as follows: Antifungal activity against Candida albicans. It is filed as functional.
For assay [27], the system named is Staphylococcus aureus. The assay is described as follows: Antibacterial activity against Staphylococcus aureus assessed as inhibition of microbial growth. The assay is classed as functional.
The test system of assay [28] is Huh-7. The assay is described as follows: Cytotoxicity against human Huh-7 cells. The assay is classed as functional, cell-based.
Assay [29] has as its system HepG2. Put plainly: Cytotoxicity against human HepG2 cells. The assay is classed as functional, cell-based.
For assay [30], the species on record is Mus musculus. The assay is described as follows: Antidepressant activity in mouse assessed as […] by tail suspension test. The assay is classed as functional.
The species named for assay [31] is Mus musculus. Put plainly: Antidepressant activity in mouse assessed as […] by forced swimming test. The assay is classed as functional.
The species entered for assay [32] is Mus musculus. Put plainly: Antianxiety activity in mouse assessed as increase in number of entries in different arms. It is filed as functional.
Assay [33] has as its system Staphylococcus aureus. Put plainly: microbe, parasite or virus in culture. This is another data set of the same source.
Assay [34] relates to Escherichia coli. Put plainly: microbe, parasite or virus in culture.
The subject of assay [35] is RAW264.7. The assay is described as follows: Antiinflammatory activity in LPS-induced mouse RAW264.7 cells assessed as inhibition of LPS induced NO production. The assay is classed as functional, cell-based.
For assay [36], the system named is RAW264.7. Put plainly: Cytotoxicity against mouse RAW264.7 cells relative to control. It is filed as functional.
Assay [37] has as its system A549. Put plainly: Cytotoxicity against human A549 cells assessed as reduction in cell viability. The assay is classed as functional, cell-based.
Assay [38] relates to HepG2. The assay is described as follows: Cytotoxicity against human HepG2 cells assessed as reduction in cell viability. It is filed as functional, cell-based.
The test system of assay [39] is HeLa. Put plainly: Cytotoxicity against human HeLa cells assessed as reduction in cell viability. The assay is classed as functional, cell-based.
Assay [40] concerns Pseudomonas aeruginosa. The assay is described as follows: microbe, parasite or virus in culture.
Assay [41] deals with Escherichia coli. The assay is described as follows: microbe, parasite or virus in culture. The source holds these as a separate data set.
The subject of assay [42] is Plasmodium falciparum. Put plainly: Antimalarial activity against chloroquine-sensitive Plasmodium falciparum 3D7. The assay is classed as functional, organism-based.
The subject of assay [43] is HepG2. Put plainly: Cytotoxicity against human HepG2 cells by SRB assay. It is filed as functional.
The test system of assay [44] is Escherichia coli. The assay is described as follows: Antibacterial activity against Escherichia coli by agar dilution method. The assay is classed as functional.
The subject of assay [45] is Candida albicans. The assay is described as follows: Antifungal activity against Candida albicans by agar dilution method. It is filed as functional.
For assay [46], the system named is Escherichia coli. The assay is described as follows: Potency index, ratio of ampicillin MIC to compound MIC for Escherichia coli by agar dilution method. It is filed as functional.
Assay [47] deals with Bacillus subtilis. The assay is described as follows: Antibacterial activity against Bacillus subtilis by agar dilution method. The assay is classed as functional.
Assay [48] concerns Pseudomonas aeruginosa. Put plainly: Antibacterial activity against Pseudomonas aeruginosa by agar dilution method. It is filed as functional.
The subject of assay [49] is Staphylococcus aureus. Put plainly: Antibacterial activity against Staphylococcus aureus by agar dilution method. The assay is classed as functional.
Assay [50] is described as follows: Antioxidant activity assessed as DPPH radical scavenging activity. The assay is classed as functional.
Assay [51] relates to Staphylococcus aureus. The assay is described as follows: Potency index, ratio of ampicillin MIC to compound MIC for Staphylococcus aureus by agar dilution method. The assay is classed as functional.

Values after ≈ are worked out from the molar mass of the structure shown.

In the case of `COc1cc(/C=C/C(=O)CC(=O)/C=C/c2ccc(O)c(OC)c2)ccc1O` [CURCUMIN], the IC50 in [1] is 53.4 nM.
With `COc1ccc(/C=C/C(=O)c2cc(OC)c(OC)c(OC)c2)cc1OCc1cn(Cc2ccc(N)cc2)nn1`, it took 1500 nM to inhibit growth in assay [2] by half (GI50). In [3], this compound yielded an inhibition of 36%.
On to `Cc1ccc(-c2nn(-c3ccccc3)cc2C2CC(c3cccs3)=NN2)cc1` (stereo unspecified), for which the Activity in assay [4] turned out to be 63.4%.
Turning to `O=c1[nH]cc(F)c(=O)[nH]1` [FLUOROURACIL], the IC50 in assay [5] came to 30 µg/mL (≈ 231 µM); in [10] it was 33.5 µg/mL (≈ 258 µM). Besides, the CC50 in [6], in assay [7], in assay [8], in assay [9], in assay [11] and in assay [12] was 13 µM in each case.
As for `OC(Cn1cncn1)(Cn1cncn1)c1ccc(F)cc1F` [FLUCONAZOLE], the MIC in [13] was 30 µg/mL (≈ 98 µM); in assay [14] it was 30 µg/mL (≈ 98 µM); in [15] it was under 10 µg/mL; in assay [16], 30 µg/mL (≈ 98 µM); in assay [17] it was 30 µg/mL (≈ 98 µM); in assay [18] it was 30 µg/mL (≈ 98 µM). Further, the MIC in assay [19] was under 10 µg/mL; in assay [20], 30 µg/mL (≈ 98 µM); in assay [21], 30 µg/mL (≈ 98 µM); in assay [22] it was 30 µg/mL (≈ 98 µM).
Turning to `O=C(c1ccncc1)N1N=C(c2ccc(Cl)cc2Cl)CC1c1cc2ccccc2nc1Cl` (stereo unspecified), the MIC in [23] is 12.5 µg/mL; in [24], 50 µg/mL (≈ 104 µM); in assay [25] it was 12.5 µg/mL (≈ 25.9 µM); in assay [26], 12.5 µg/mL (≈ 25.9 µM); in [27], 12.5 µg/mL.
In the case of `CCC(=O)N1N=C(c2ccccc2)CC1c1cn(-c2ccccc2)nc1-c1ccc(C)cc1` (stereo unspecified), the Activity in [4] amounted to 45.52%.
With `N#Cc1c(-c2ccc(F)cc2)nc(N2N=C(c3c4ccccc4cc4ccccc34)CC2c2ccc(F)cc2)[nH]c1=O` (stereo unspecified), the IC50 in assay [28] worked out at 6.13 µg/mL (≈ 11.1 µM); in [29], 5.34 µg/mL (≈ 9.65 µM).
For the compound `Oc1ccc(C2=NNC(c3ccc(Cl)cc3)C2)cc1` (stereo unspecified), the Time in assay [30] and in [31] was 21.17 s in each case. The Activity in assay [32] came to 17.67.
Consider `COC(=O)C1N=NN(CC(=O)N2N=C(c3ccccc3)CC2c2cccs2)C1C(=O)OC` (stereo unspecified), for which the MIC in assay [33] and in [34] was 3.9 µg/mL (≈ 8.56 µM) each time.
On to `C[C@]12CC[C@H]3[C@@H](CC=C4C[C@@H](O)CC[C@@]43C)[C@@H]1CC[C@@H]2C1=NN(C(N)=S)C(c2cccc(F)c2)C1` (stereo partly specified), for which the IC50 in assay [35] is 1020 nM. Also, the Activity in [36] is over 90%.
For `COc1cc(C2CC(c3c4ccccc4cc4ccccc34)=NN2c2nc(-c3ccc(F)cc3)c(C#N)c(=O)[nH]2)cc(OC)c1OC` (stereo unspecified), the half-maximal inhibitory concentration (IC50) in assay [28] stood at 4.78 µg/mL (≈ 7.64 µM).
For the compound `COc1cc(C2CC(c3ccc(Cl)cc3)=NN2C(N)=S)cc(Br)c1O` (stereo unspecified), the concentration for half-maximal inhibition (IC50) in assay [37] worked out at 44.1 µM.
For `COc1cc(C2CC(c3ccc(Cl)cc3)=NN2C(N)=S)cc(OC)c1OC` (stereo unspecified), the half-maximal inhibitory concentration (IC50) amounted to 16 µM in [38] and 9.37 µM in assay [39].
As for `O=C(c1ccncc1)N1N=C(c2ccc(F)cc2)CC1c1cc2ccccc2nc1Cl` (stereo unspecified), the MIC in [40], in assay [41] and in [26] was 12.5 µg/mL (≈ 29 µM) each time.
Turning to `COc1cc(C2CC(c3cc4ccccc4oc3=O)=NN2C(=O)c2ccncc2)cc(OC)c1OC` (stereo unspecified), in [42], it took 9.68 µg/mL (≈ 19.9 µM) to reach half-maximal inhibition (IC50).
`COc1ccc(C2CC(c3cc(OC)c(OC)c(OC)c3)=NN2C(C)=O)cc1OCc1cn(Cc2ccc(F)cc2)nn1` (stereo unspecified) gave a GI50 in assay [43] of 6.7 µM.
As for `COc1ccc2c(c1)cc(C1CC(c3cc(Br)ccc3O)=NN1)c1nnnn12` (stereo unspecified), the MIC in [44] was found to be 50 µg/mL (≈ 114 µM); in [45] it was 25 µg/mL (≈ 56.9 µM); in assay [47], 25 µg/mL (≈ 56.9 µM); in assay [48], 25 µg/mL (≈ 56.9 µM); in assay [49], 50 µg/mL (≈ 114 µM). Also, the figures for the Ratio in assay [46] and in [51] were 2 and 10, respectively. In assay [50], the half-maximal inhibitory concentration (IC50) is 21 µg/mL (≈ 47.8 µM).
As to `COc1cc(C2CC(c3ccc(F)cc3)=NN2C(N)=S)cc(OC)c1OC` (stereo unspecified), the IC50 was 6.78 µM in assay [38] and 7.63 µM in assay [39].
